Experimental data from patent US20040087514A1, “Nutritional compositions” (priority 2002, published 2004).
Marks after values point to notes of the source that are not given here.

How the values were obtained:
Type in all cases: in vivo, human
[1] = test system: GLP-1 secretion; assay: Clinical study, GLP-1 levels after ingestion of load (Example 1); details: for GLP-1 (A): mean
Experimental: (§1) A randomized, placebo-controlled trial was performed in 20 subjects (12 women, 8 men) [body mass index (in kg/m^2): 23]. Subjects received 5 times at least one week apart- a load consisting of galactose (50 g) alone or in combination with guar gum (2,5 g), solved in 250 ml water, or 250 ml water without any additives. Prior to each treatment a catheter was placed in an anticubital vein. Eating behavior and dietary restraint status of subjects were investigated using a validated Dutch translation of the Three Factor Eating Questionnaire (TFEQ). The study was approved by the Medical Ethics Committee of the Maastricht University.

[2] = test system: insulin release; assay: Clinical study, insulin levels after ingestion of load (Example 1); details: mean
Experimental: as §1

[3] = test system: C-peptide (indicator of insulin secretion); assay: Clinical study, C-peptide levels after ingestion of load (Example 1); details: mean
Experimental: as §1

[4] = test system: healthy, normal-weight subjects; assay: Clinical study, perception of satiety, Visual Analog Scale (Example 1); details: mean from 100 mm Visual Analog Scale
Experimental: as §1

[5] = Clinical study, plasma glucose, galactose, free fatty acids, glycerol (Example 1); details: data not shown
Experimental: as §1

O=C[C@H](O)[C@@H](O)[C@@H](O)[C@H](O)CO [Galactose, galactose]
GLP-1 (A) ([1]; 0 minutes, 50 g galactose (+2,5 g guar gum) in 250 ml water): 3.8 pmol/L | GLP-1 release compared to water ([1]; 30 minutes after ingestion of the load, p<0.05): significantly elevated | GLP-1 (A) ([1]; 30 minutes after ingestion): 4.6^# pmol/l | GLP-1 (A) ([1]; 60 minutes after ingestion): 3.5 pmol/L | GLP-1 (A) ([1]; 90 minutes after ingestion): 3.2 pmol/L | GLP-1 (A) ([1]; 120 minutes after ingestion): 3.7 pmol/L | GLP-1 (A) ([1]; 240 minutes after ingestion): 3.7 pmol/L | Insulin (B) ([2]; 0 minutes): 7.3 mU/l | Insulin (B) ([2]; 30 minutes after ingestion): 21# mU/l | Insulin (B) ([2]; 60 minutes after ingestion): 13 mU/l | Insulin (B) ([2]; 90 minutes after ingestion): 12 mU/l | Insulin (B) ([2]; 120 minutes after ingestion): 9.9 mU/l | Insulin (B) ([2]; 240 minutes after ingestion): 4.7 mU/l | C-peptide (A) ([3]; 0 minutes): 0.61 nmol/L | C-peptide (A) ([3]; 30 minutes after ingestion): 1.03^# nmol/l | C-peptide (A) ([3]; 60 minutes after ingestion): 0.89^# nmol/l | C-peptide (A) ([3]; 120 minutes after ingestion): 0.88 nmol/L | Satiety (B) ([4]; 0 minutes): 27^ mm | Satiety (B) ([4]; 30 minutes): 34# mm | Satiety (B) ([4]; 60 minutes): 33# mm | Satiety (B) ([4]; 90 minutes): 25# mm | Satiety (B) ([4]; 120 minutes): 31# mm | Satiety (B) ([4]; 240 minutes): 20^ mm | galactose levels [5]: increased galactose levels significantly
